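A five-concentration, 48-hour dose response in 96-well plates underlies each endpoint, interpolated linearly between surrounding concentrations. At the GI50, growth is halved.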 Calls of active or inactive are those of the source. No stated cut-off is given here; in the data, active = GI50 up to about 1.1 µM and inactive = higher.
Key:
Assay in all cases: growth of human tumour cells (NCI), 48 h
Hs-578T = system: Hs-578T
U-251 = system: U-251
LOX IMVI = system: LOX IMVI
OVCAR-3 = system: OVCAR-3
EKVX = system: EKVX
A498 = system: A498
CAKI-1 = system: CAKI-1
RPMI-8226 = system: RPMI-8226
PC-3 = system: PC-3
MDA-MB-231 = system: MDA-MB-231
SK-MEL-5 = system: SK-MEL-5
HT-29 = system: HT-29
SN12C = system: SN12C
SK-MEL-28 = system: SK-MEL-28
SF-295 = system: SF-295
HCT-15 = system: HCT-15
SF-268 = system: SF-268
HCC 2998 = system: HCC 2998
ACHN = system: ACHN
MDA-MB-435 = system: MDA-MB-435
HOP-62 = system: HOP-62
OVCAR-8 = system: OVCAR-8
SK-OV-3 = system: SK-OV-3
HL-60 = system: HL-60
HCT-116 = system: HCT-116
IGROV-1 = system: IGROV-1
786-0 = system: 786-0
SR = system: SR
SW-620 = system: SW-620
HOP-92 = system: HOP-92
KM12 = system: KM12
NCI/ADR-RES = system: NCI/ADR-RES
T47D = system: T47D
OVCAR-5 = system: OVCAR-5
TK-10 = system: TK-10
OVCAR-4 = system: OVCAR-4
DU-145 = system: DU-145
RXF 393 = system: RXF 393
SNB-75 = system: SNB-75
M14 = system: M14
UACC-257 = system: UACC-257
MDA-N = system: MDA-N
A549 = system: A549
NCI-H522 = system: NCI-H522
K562 = system: K562
Malme-3M = system: Malme-3M
MCF7 = system: MCF7
UACC-62 = system: UACC-62
SK-MEL-2 = system: SK-MEL-2
UO-31 = system: UO-31
NCI-H226 = system: NCI-H226
MOLT-4 = system: MOLT-4
CCRF-CEM = system: CCRF-CEM
NCI-H23 = system: NCI-H23
NCI-H460 = system: NCI-H460
COLO 205 = system: COLO 205
BT-549 = system: BT-549
SF-539 = system: SF-539
SNB-19 = system: SNB-19

CN(CCCN1CCCC1)CCCN(C)C(=O)Cc1ccc(Cl)c(Cl)c1
GI50 (Hs-578T): 5.85 µM (inactive)
GI50 (U-251): 14.9 µM (inactive)
GI50 (LOX IMVI): 12.7 µM (inactive)
GI50 (OVCAR-3): 27 µM (inactive)
GI50 (EKVX): 24.1 µM (inactive)
GI50 (A498): 14.5 µM (inactive)
GI50 (CAKI-1): 20.6 µM (inactive)
GI50 (RPMI-8226): 4.61 µM (inactive)
GI50 (PC-3): 22.1 µM (inactive)
GI50 (MDA-MB-231): 12.6 µM (inactive)
GI50 (SK-MEL-5): 15.3 µM (inactive)
GI50 (HT-29): 3.77 µM (inactive)
GI50 (SN12C): 21 µM (inactive)
GI50 (SK-MEL-28): 1.99 µM (inactive)
GI50 (SF-295): 17.7 µM (inactive)
GI50 (HCT-15): 26.1 µM
GI50 (SF-268): 8.87 µM (inactive)
GI50 (HCC 2998): 5.68 µM (inactive)
GI50 (ACHN): 27.6 µM (inactive)
GI50 (MDA-MB-435): 3.04 µM (inactive)
GI50 (HOP-62): 19.2 µM (inactive)
GI50 (OVCAR-8): 30 µM (inactive)
GI50 (SK-OV-3): 27.7 µM (inactive)
GI50 (HL-60): 15.7 µM (inactive)
GI50 (HCT-116): 13.6 µM (inactive)
GI50 (IGROV-1): 23.9 µM (inactive)
GI50 (786-0): 13.4 µM (inactive)
GI50 (SR): 11.9 µM (inactive)
GI50 (SW-620): 18.4 µM (inactive)
GI50 (HOP-92): 8.63 µM (inactive)
GI50 (KM12): 18.7 µM (inactive)
GI50 (NCI/ADR-RES): > 73.3 µM (inactive)
GI50 (T47D): 21.2 µM (inactive)
GI50 (OVCAR-5): 29.4 µM (inactive)
GI50 (TK-10): 16.2 µM (inactive)
GI50 (OVCAR-4): 29.6 µM (inactive)
GI50 (DU-145): 43.9 µM (inactive)
GI50 (RXF 393): 12.2 µM (inactive)
GI50 (SNB-75): 18.5 µM (inactive)
GI50 (M14): 5.47 µM (inactive)
GI50 (UACC-257): 2.55 µM (inactive)
GI50 (MDA-N): 4.22 µM (inactive)
GI50 (A549): 18.6 µM (inactive)
GI50 (NCI-H522): 15.7 µM (inactive)
GI50 (K562): 5.75 µM (inactive)
GI50 (Malme-3M): 18.3 µM (inactive)
GI50 (MCF7): 16.6 µM (inactive)
GI50 (UACC-62): 2.36 µM (inactive)
GI50 (SK-MEL-2): 13.5 µM (inactive)
GI50 (UO-31): 4.69 µM (inactive)
GI50 (NCI-H226): 26.2 µM (inactive)
GI50 (MOLT-4): 13.2 µM (inactive)
GI50 (CCRF-CEM): 6.85 µM (inactive)
GI50 (NCI-H23): 21.2 µM (inactive)
GI50 (NCI-H460): 16.3 µM (inactive)
GI50 (COLO 205): 17.6 µM (inactive)
GI50 (BT-549): 18.6 µM (inactive)
GI50 (SF-539): 16.7 µM (inactive)
GI50 (SNB-19): 26.9 µM (inactive)

COc1cccc2c1C(=O)c1c(O)c3c(c(O)c1C2=O)C[C@@](O)(C(=O)CO)C[C@@H]3OC1CC2C(OCN3CN2COC2C(C)OC(O[C@H]4C[C@](O)(C(=O)CO)Cc5c(O)c6c(c(O)c54)C(=O)c4c(OC)cccc4C6=O)CC23)C(C)O1 (stereo partly drawn)
GI50 (Hs-578T): 0.0559 µM (active)
GI50 (U-251): 0.0186 µM (active)
GI50 (LOX IMVI): 0.0134 µM (active)
GI50 (OVCAR-3): 0.112 µM (active)
GI50 (EKVX): 0.203 µM (active)
GI50 (A498): 0.0559 µM (active)
GI50 (CAKI-1): 0.0927 µM (active)
GI50 (RPMI-8226): 0.0184 µM (active)
GI50 (PC-3): 0.0929 µM (active)
GI50 (MDA-MB-231): 0.0741 µM (active)
GI50 (SK-MEL-5): 0.0614 µM (active)
GI50 (HT-29): 0.0428 µM (active)
GI50 (SN12C): 0.0231 µM (active)
GI50 (SK-MEL-28): 0.157 µM (active)
GI50 (SF-295): 0.0498 µM (active)
GI50 (HCT-15): 0.161 µM
GI50 (SF-268): 0.0319 µM (active)
GI50 (HCC 2998): 0.0274 µM (active)
GI50 (ACHN): 0.0634 µM (active)
GI50 (MDA-MB-435): 0.0891 µM (active)
GI50 (HOP-62): 0.04 µM (active)
GI50 (OVCAR-8): 0.0376 µM (active)
GI50 (SK-OV-3): 0.0681 µM (active)
GI50 (HL-60): 0.0258 µM (active)
GI50 (HCT-116): 0.0289 µM (active)
GI50 (IGROV-1): 0.0266 µM (active)
GI50 (786-0): 0.02 µM (active)
GI50 (SR): 0.00119 µM (active)
GI50 (SW-620): 0.0187 µM (active)
GI50 (HOP-92): 0.0308 µM (active)
GI50 (KM12): 0.0635 µM (active)
GI50 (NCI/ADR-RES): 0.251 µM (active)
GI50 (T47D): 0.0167 µM (active)
GI50 (OVCAR-5): 0.131 µM (active)
GI50 (TK-10): 0.0412 µM (active)
GI50 (OVCAR-4): 0.237 µM (active)
GI50 (DU-145): 0.0265 µM (active)
GI50 (RXF 393): 0.0106 µM (active)
GI50 (SNB-75): 0.0151 µM (active)
GI50 (M14): 0.0861 µM (active)
GI50 (UACC-257): 0.05 µM (active)
GI50 (MDA-N): 0.0923 µM (active)
GI50 (A549): 0.0269 µM (active)
GI50 (NCI-H522): 0.0218 µM (active)
GI50 (K562): 0.0684 µM (active)
GI50 (Malme-3M): 0.0444 µM (active)
GI50 (MCF7): 0.0179 µM (active)
GI50 (UACC-62): 0.0345 µM (active)
GI50 (SK-MEL-2): 0.0362 µM (active)
GI50 (UO-31): 0.139 µM (active)
GI50 (NCI-H226): 0.0665 µM (active)
GI50 (MOLT-4): 0.00269 µM (active)
GI50 (CCRF-CEM): 0.00916 µM (active)
GI50 (NCI-H23): 0.027 µM (active)
GI50 (NCI-H460): 0.00433 µM (active)
GI50 (COLO 205): 0.0614 µM (active)
GI50 (BT-549): 0.157 µM (active)
GI50 (SF-539): 0.0377 µM (active)
GI50 (SNB-19): 0.0272 µM (active)
